For twelve compounds, IC50 results are on record in patent US10385007B2, “Monamine and monoamine derivatives as inhibitors of leukotriene A4 hydrolase” (Celtaxsys, Inc., priority 2016, dated 2019).

Experiment [1] deals with T1, recombinant human LTA4 hydrolase (Homo sapiens, UniProt P09960).
T1 sequence (P09960 1-611): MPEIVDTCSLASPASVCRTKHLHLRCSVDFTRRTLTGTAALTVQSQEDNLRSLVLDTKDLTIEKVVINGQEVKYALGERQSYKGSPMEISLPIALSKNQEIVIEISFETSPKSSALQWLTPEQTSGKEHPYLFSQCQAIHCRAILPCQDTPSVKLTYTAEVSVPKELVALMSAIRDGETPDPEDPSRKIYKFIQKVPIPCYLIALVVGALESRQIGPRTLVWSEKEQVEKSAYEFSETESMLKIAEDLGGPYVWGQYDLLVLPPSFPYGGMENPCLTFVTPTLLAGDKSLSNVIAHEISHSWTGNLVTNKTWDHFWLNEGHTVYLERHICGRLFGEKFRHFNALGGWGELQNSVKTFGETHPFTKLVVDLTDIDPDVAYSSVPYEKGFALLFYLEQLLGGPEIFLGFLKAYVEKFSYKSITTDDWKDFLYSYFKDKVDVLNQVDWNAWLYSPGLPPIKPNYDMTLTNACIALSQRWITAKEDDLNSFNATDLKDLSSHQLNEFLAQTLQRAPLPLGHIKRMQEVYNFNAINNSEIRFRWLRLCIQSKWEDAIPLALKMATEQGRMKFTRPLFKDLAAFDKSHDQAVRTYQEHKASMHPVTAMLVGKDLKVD
Put plainly: LTA4 hydrolase homogeneous time resolved fluorescence (HTRF) assay. It counts as biochemical. How it is done: Compounds of the invention were tested in the LTA4 hydrolase homogeneous time resolved fluorescence (HTRF) assay to determine their ability to inhibit the hydrolysis of LTA4 to LTB4. The assay analyzes the amount of LTB4 produced.
LTA4 HTRF assay is a two-step assay involving enzymatic conversion of LTA4 to LTB4, and subsequent quantification of LTB4, product with HTRF assay.
The enzymatic conversion of LTA4 to LTB4 was performed in 384-well plates at ambient temperature in a reaction mixture containing 50 mM HEPES (pH 7.5), 0.5% BSA (fatty acid free), 18 nM recombinant human LTA4 hydrolase, 150 nM LTA4, 1% DMSO in the absence or presence of a compound of the invention. Reaction was stopped after 10 minutes incubation by diluting the incubation mixture 10-fold in 50 mM phosphate, 0.1% casein buffer (pH 7.0).
LTB4 formed was quantified with the HTRF assay in which free LTB4 competes with LTB4-XL665 conjugate (acceptor) for anti-LTB4 monoclonal antibody labeled with Europium cryptate (donor), thereby inhibiting the fluorescence energy transfer.
The LTB4 HTRF 384-well assay was carried out by incubating LTB4 samples or standards with LTB4-XL665 conjugate (7.5 ng/well) and anti-LTB4 monoclonal antibody-Europium cryptate conjugate (0.5 ng/well) in 50 mM phosphate, 0.4 M KF and 0.1% casein, buffer (pH 7.0) for two hours at ambient temperature. Plates were read in a RubyStar plate reader (BmG Labtechnologies Inc., NC) simultaneously at 620 nm and 665 nm to obtain signal ratios of 665 nm/620 nm. Results of energy transfer were expressed as delta F (%) which equaled [(signal ratio of sample-signal ratio of negative control)/(signal ratio of negative control)]×100%. Negative controls were control samples without LTB4 or LTB4-XL665.
Sample LTB4 concentrations were calculated from the LTB4 standard curve using the 4-parameter fit equation. For determination IC50 values for a particular compound of the invention, eight serially diluted compound concentrations (at 1:3.16 dilution) were used in this assay. Controls without a compound of the invention or with a reference compound were run parallel in the same assay plate.
(In general: In TR-FRET formats the signal depends on donor and acceptor labels being close together.)

The test system of experiment [2] is LTB4 production in human whole blood. Put plainly: Whole blood assay (LTB4 release upon calcium ionophore, ELISA), human. It counts as cell-based. As to conditions: production of LTB4 in whole blood, calcium ionophore stimulation. The procedure: Compounds of the invention were tested for their ability as inhibitors of LTA4 hydrolase in a whole blood assay using human, mouse, rat or dog whole blood in a manner similar to that described in Penning, T. D. et al., J. Med. Chem. (2000), 43(4): 721-735. In this assay, compounds were tested for their ability to inhibit LTB4 release upon stimulation with calcium ionophore. The LTB4 levels in supernatants were measured by ELISA.
On the technique in general: In an ELISA, binding on a coated surface is turned into a signal by an enzyme label.

Experiment [3] has as its target T2, LTA4 hydrolase peptidase activity (Homo sapiens, UniProt P09960).
T2 sequence (P09960 1-611): T1 sequence (P09960 1-611)
Put plainly: Peptidase assay (hydrolysis of L-alanine-p-nitroanilide). The note with it: 29 nM enzyme, 1 mM L-alanine-p-nitroanilide, 1 hour. It counts as biochemical. How it is done:
Inhibition of peptidase activity was measured for the compounds of the invention by using methods similar to those described in Kull, F. et al., The Journal of Biological Chemistry 1999, 274 (49): 34683-34690.
In brief, the enzyme (29 nM) was incubated with L-alanine-p-nitroanilide (1 mM) in 50 mM HEPES (pH 7.5), 100 mM KCL, 1% DMSO in the absence or presence of a compound of the invention for 1 hour at ambient temperature. Reaction was terminated by addition of acetic acid (1%). Formation of colored nitro-aniline was measured by the increase in absorbance at 405 nm in a Victor 2 plate reader (Wallac). Spontaneous hydrolysis of the substrate was corrected for by subtracting the absorbance of control incubations without enzyme.

Setting [4] is: inhibition of LTA4 to LTB4 hydrolysis, 18 nM enzyme, 150 nM LTA4, 10 minutes, read-out: Hydrolase IC50.

Where two headings read alike, the source gives them in different places.

In general, IC50 refers to the concentration needed to halve the response being measured.

As to `NCc1ccc(OCc2ccc(-c3ccccc3)cc2)cc1` [Example 1, 1-(4-phenylphenyl-1-methoxy)-4-aminomethylbenzene], the IC50 in experiment [1] (setting [4]) is 300 nM.

Turning to `NCCc1ccc(OCc2ccc(-c3ccccc3)cc2)cc1` [Example 2, (4-phenylphenyl-1-methoxy)-4-phenylethylamine], the values for the IC50 in experiment [2] and in experiment [1] were 47 nM and 41 nM, respectively.

Consider `NCCc1ccc(Oc2ccc(Cc3ccccc3)cc2)cc1` [Example 3, 4-benzylphenoxy-4-phenylethylamine], for which the IC50 in experiment [2] turned out to be 89 nM; in experiment [1], 44 nM.

For `CN(CCOc1ccc(Cc2ccccc2)cc1)Cc1ccccc1Oc1ccc(C(=O)O)cc1` [Example 4, [N-2-(4-benzylphenoxy)ethyl]-N-methyl-(2-aminomethylphenoxy)-4-benzoic acid], the figures for the IC50 in experiment [3], in experiment [2] and in experiment [1] (setting [4]) were 32 nM, 370 nM and 100 nM, respectively.

For the compound `NCc1ccc(Oc2ccc(Cc3ccccc3)cc2)cc1` [Example 5, 4-(4-benzylphenoxy)benzylamine], the 50% inhibitory concentration (IC50) turned out to be 150 nM in experiment [2] and 270 nM in experiment [1] (setting [4]).

`CN(CCOc1ccc(Cc2ccccc2)cc1)Cc1ccc(C(=O)O)cc1` [Example 6, [N-2-(4-benzylphenoxy)ethyl]-N-methyl-aminomethyl-4-benzoic acid]: the IC50 in experiment [2] stood at 310 nM; in experiment [1] (setting [4]), 21 nM.

In the case of `NC(Cc1ccc(Oc2ccc(Cc3ccccc3)cc2)cc1)C(=O)O` (stereo not shown) [Example 7, 3-[4-(4-benzylphenoxy)phenyl]-2-aminopropanoic acid], the half-inhibitory concentration (IC50) is 880 nM in experiment [2] and 84 nM in experiment [1] (setting [4]).

For the compound `COC(=O)C(N)Cc1ccc(Oc2ccc(Cc3ccccc3)cc2)cc1` (stereo not shown) [Example 8, methyl 3-[4-(4-benzylphenoxy)phenyl]-2-aminopropanoate], the IC50 was 790 nM in experiment [2] and 120 nM in experiment [1] (setting [4]).

As for `CCOC(=O)C(N)Cc1ccc(Oc2ccc(Cc3ccccc3)cc2)cc1` (stereo not shown) [Example 9, ethyl 3-[4-(4-benzylphenoxy)phenyl]-2-aminopropanoate], the IC50 in experiment [2] turned out to be 350 nM; in experiment [1] (setting [4]), 130 nM.

Take `NC(CO)Cc1ccc(Oc2ccc(Cc3ccccc3)cc2)cc1` (stereo not shown) [Example 10, 3-[4-(4-benzylphenoxy)phenyl]-2-aminopropanol]: the values for the 50% inhibitory concentration (IC50) in experiment [2] and in experiment [1] (setting [4]) were 910 nM and 260 nM, respectively.

On to `NCc1cccnc1NCCOc1ccc(Cc2ccccc2)cc1` [Example 11, 2-(4-benzylphenoxy)ethylamino-3-aminomethylpyridine], for which the IC50 in experiment [3] was 180 nM; in experiment [1] (setting [4]), 300 nM.

Consider `CN(CCOc1ccc(Cc2ccccc2)cc1)Cc1ccccc1Oc1cccc(C(=O)O)c1` [Example 12], for which the values for the IC50 in experiment [3], in experiment [2] and in experiment [1] (setting [4]) were 23 nM, 150 nM and 15 nM, respectively.
